Laboratory results as given in patent publication US11001590B2, “Pyrazolopyrimidine derivatives” (BAYER ANIMAL HEALTH GMBH, priority 2016, dated 2021).

Legend:
[1] = test system: Dirofilaria immitis microfilariae; assay: In vitro assay 3: Dirofilaria immitis microfilariae (DIROIM L1), motility; conditions: 72 h, reduction of motility vs negative control, 72 h incubation
[2] = test system: Dirofilaria immitis third-stage larvae; assay: In vitro assay 4: Dirofilaria immitis (DIROIM L4), motility of larvae; conditions: 72 h
[3] = test system: Litomosoides sigmodontis third-stage larvae; assay: In vitro assay 7: Litomosoides sigmodontis L3 (LTMOSI), motility; conditions: 72 h, reduction of motility vs negative control, 72 h incubation
[4] = log P by HPLC on reversed phase columns (Method L0; [a] acidic, [b] neutral range)
Procedure: Calibration was done with straight-chain alkan-2-ones (with 3 to 16 carbon atoms) with known log P values (measurement of log P values using retention times with linear interpolation between successive alkanones). Lambda-max-values were determined using UV-spectra from 200 nm to 400 nm and the peak values of the chromatographic signals.

C. elegans Slo-1a = C. elegans Slo-1a (Caenorhabditis elegans, UniProt Q95V25); assay: In vitro assay 1: C. elegans Slo-1a, action at a recombinant C. elegans CHO cell line (membrane potential measurement)
Sequence of C. elegans Slo-1a (Q95V25 whole entry): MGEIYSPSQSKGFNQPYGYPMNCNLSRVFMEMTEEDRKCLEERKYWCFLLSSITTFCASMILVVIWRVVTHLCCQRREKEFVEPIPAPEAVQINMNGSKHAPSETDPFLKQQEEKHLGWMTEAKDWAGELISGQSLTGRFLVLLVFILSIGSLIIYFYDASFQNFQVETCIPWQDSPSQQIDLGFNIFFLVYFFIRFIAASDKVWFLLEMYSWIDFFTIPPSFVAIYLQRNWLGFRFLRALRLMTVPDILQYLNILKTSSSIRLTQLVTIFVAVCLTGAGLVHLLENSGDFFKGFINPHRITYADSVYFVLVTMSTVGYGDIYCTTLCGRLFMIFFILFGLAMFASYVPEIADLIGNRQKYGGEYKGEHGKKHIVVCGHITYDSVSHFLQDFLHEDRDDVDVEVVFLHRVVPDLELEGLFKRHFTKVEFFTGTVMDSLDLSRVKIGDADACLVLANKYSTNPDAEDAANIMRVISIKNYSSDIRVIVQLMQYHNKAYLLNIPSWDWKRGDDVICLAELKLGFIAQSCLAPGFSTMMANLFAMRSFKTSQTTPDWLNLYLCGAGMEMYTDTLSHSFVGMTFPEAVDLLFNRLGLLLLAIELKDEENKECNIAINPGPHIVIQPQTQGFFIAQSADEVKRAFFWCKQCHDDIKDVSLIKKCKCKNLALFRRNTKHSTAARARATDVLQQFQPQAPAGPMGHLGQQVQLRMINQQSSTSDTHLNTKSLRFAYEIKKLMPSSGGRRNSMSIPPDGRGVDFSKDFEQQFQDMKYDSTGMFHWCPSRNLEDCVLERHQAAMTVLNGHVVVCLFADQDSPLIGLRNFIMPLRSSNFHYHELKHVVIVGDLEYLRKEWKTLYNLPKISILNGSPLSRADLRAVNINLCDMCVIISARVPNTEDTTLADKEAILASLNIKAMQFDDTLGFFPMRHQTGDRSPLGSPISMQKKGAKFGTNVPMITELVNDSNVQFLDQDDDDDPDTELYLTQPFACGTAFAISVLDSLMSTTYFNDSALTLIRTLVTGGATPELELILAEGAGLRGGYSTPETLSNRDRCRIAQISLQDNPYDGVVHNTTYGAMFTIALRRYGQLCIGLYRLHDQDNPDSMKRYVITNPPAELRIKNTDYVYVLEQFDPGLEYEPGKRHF

SMILES | EC50 [1] [µg/mL] | EC50 [2] [µg/mL] | EC50 [3] [µg/mL] | chromatographic logP [4] | EC50 (C. elegans Slo-1a) [nM]
Cc1nn2c(C(C)C)c(C(=O)N[C@H]3CCCc4ccccc43)cnc2c1-c1c(F)cccc1F [Example 98] | < 0.1 | < 0.1 | < 0.1 | 4.67 | 12.6
Cc1nn2c(C(C)C)c(C(=O)N[C@H]3CCc4ccccc43)cnc2c1-c1c(F)cccc1F [Example 99] | < 0.1 | < 0.1 | < 0.1 | 4.37 | 10
Cc1nn2c(C(C)C)c(C(=O)N[C@H]3CCOc4ccccc43)cnc2c1-c1ccc(F)c(F)c1 [Example 100] | < 0.1 | < 0.1 | < 0.1 | 4.56 | 7.94
Cc1nn2c(C(C)C)c(C(=O)N[C@H]3CCc4ccccc43)cnc2c1-c1ccc(F)c(F)c1 [Example 103] | < 0.1 | < 0.1 | < 0.1 | 4.82 | 20
Cc1nn2c(C(C)C)c(C(=O)N[C@H]3CCOc4ccccc43)cnc2c1-c1ccccc1Cl [Example 107] | < 0.1 | < 0.1 | < 0.1 | 4.37 | 5.01
Cc1nn2c(C(C)C)c(C(=O)N[C@H]3CCc4ccccc43)cnc2c1-c1cc(F)ccc1F [Example 116] | < 0.1 | < 0.1 | < 0.1 | 4.59 | 10
Cc1nn2c(C(C)C)c(C(=O)N[C@H]3CCOc4ccccc43)cnc2c1-c1cccc(Cl)c1 [Example 117] | < 0.1 | < 0.1 | < 0.1 | 4.87 | 5.01
Cc1nn2c(C(C)C)c(C(=O)N[C@H]3CCOc4ccccc43)cnc2c1-c1cc(F)ccc1F [Example 121] | < 0.1 | < 0.1 | < 0.1 | 4.41 | 6.31
Cc1nn2c(C(C)C)c(C(=O)N[C@H]3CCCc4ccccc43)cnc2c1-c1c(F)cccc1Cl [Example 131] | < 0.1 | < 0.1 | < 0.1 | 5.02 | 7.94
Cc1nn2c(C(C)C)c(C(=O)N[C@H]3CCc4ccccc43)cnc2c1-c1c(F)cccc1Cl [Example 132] | < 0.1 | < 0.1 | < 0.1 | 4.71 | 6.31
Cc1nn2c(C(C)C)c(C(=O)N[C@H]3CCCc4ccccc43)cnc2c1-c1cccc(F)c1F [Example 134] | < 0.1 | < 0.1 | < 0.1 | 4.9 | 12.6
Cc1nn2c(C(C)C)c(C(=O)N[C@H]3CCc4ccccc43)cnc2c1-c1cccc2c1OC(F)(F)O2 [Example 147] | < 0.1 | < 0.1 | < 0.1 | 5.17 | 50.1
Cc1nn2c(C(C)C)c(C(=O)N[C@H]3CCOc4ccccc43)cnc2c1-c1cccc(C(F)F)c1 [Example 153] | < 0.1 | < 0.1 | < 0.1 | 4.41 | 126
Cc1nn2c(C(C)C)c(C(=O)N[C@H]3CCOc4ccccc43)cnc2c1-c1c(Cl)cccc1Cl [Example 154] | < 0.1 | < 0.1 | < 0.1 | 4.56 | 6.31
Cc1nn2c(C(C)C)c(C(=O)N[C@H]3CCc4ccccc43)cnc2c1-c1cccc(Cl)c1Cl [Example 168] | < 0.1 | < 0.1 | < 0.1 | 5.13 | 3.16
Cc1nn2c(C(C)C)c(C(=O)N[C@H]3CCCc4ccccc43)cnc2c1-c1cccc(Cl)c1Cl [Example 169] | < 0.1 | < 0.1 | < 0.1 | 5.46 | 6.31
Cc1nn2c(C(C)C)c(C(=O)N[C@H]3CCc4ccccc43)cnc2c1-c1cc(Cl)ccc1Cl [Example 171] | < 0.1 | < 0.1 | < 0.1 | 5.31 | 5.01
Cc1nn2c(C(C)C)c(C(=O)N[C@H]3CCOc4ccccc43)cnc2c1-c1cc(Cl)ccc1Cl [Example 173] | < 0.1 | < 0.1 | < 0.1 | 5 | 3.98
Cc1nn2c(C(C)C)c(C(=O)N[C@H]3CCOc4ccccc43)cnc2c1-c1cccc(F)c1Cl [Example 191] | < 0.1 | < 0.1 | < 0.1 | 4.46 | 1.26
Cc1ccccc1-c1c(C)nn2c(C(C)C)c(C(=O)N[C@H]3CCOc4ccccc43)cnc12 [Example 193] | < 0.1 | < 0.1 | < 0.1 | 4.44 | 0.794

SMILES | EC50 [1] [µg/mL] | EC50 [2] [µg/mL] | EC50 [3] [µg/mL] | chromatographic logP [4] | EC50 (C. elegans Slo-1a) [nM]
CCC(C)c1c(C(=O)N[C@H]2CCOc3ccccc32)cnc2c(-c3c(F)cccc3Cl)c(C)nn12 (some centres unmarked) [Example 226] | < 0.1 | < 0.1 | < 0.1 | 4.72 | 20
COCc1cccc(-c2c(C)nn3c(C(C)C)c(C(=O)N[C@H]4CCc5ccccc54)cnc23)c1 [Example 300] | < 1 | < 0.1 | < 0.1 | 4.43 | 6.31
Cc1nn2c(C(C)C)c(C(=O)N[C@H]3CCc4ccccc43)cnc2c1-c1ccc(F)cc1 [Example 302] | < 0.1 | < 0.1 | < 0.1 | 4.63 | 12.6
Cc1nn2c(C(C)C)c(C(=O)N[C@H]3CCc4ccccc43)cnc2c1-c1cc(F)cc(F)c1 [Example 323] | < 0.1 | < 1 | < 0.1 | 5.02 | 39.8
Cc1nn2c(C(C)C)c(C(=O)N[C@H]3CCc4ccccc43)cnc2c1-c1cc(F)cc(Cl)c1 [Example 324] | < 0.1 | < 0.1 | < 0.1 | 5.49 | 31.6
COc1cc(F)cc(-c2c(C)nn3c(C(C)C)c(C(=O)N[C@H]4CCc5ccccc54)cnc23)c1 [Example 325] | < 0.1 | < 0.1 | < 0.1 | 4.8 | 20
Cc1nn2c(C(C)C)c(C(=O)N[C@H]3CCc4ccccc43)cnc2c1-c1cccc(OC(F)F)c1 [Example 337] | < 0.1 | < 1 | < 0.1 | 4.7 | 12.6
Cc1nn2c(C3CC3)c(C(=O)N[C@H]3CCc4ccccc43)cnc2c1-c1ccccc1Cl [Example 349] | < 0.1 | < 0.1 | < 0.1 | 3.88 | 2.51
COc1cccc(-c2c(C)nn3c(C4CC4)c(C(=O)N[C@H]4CCc5ccccc54)cnc23)c1 [Example 351] | < 0.1 | < 0.1 | < 0.1 | 3.74 | 3.98
Cc1nn2c(C3CC3)c(C(=O)N[C@H]3CCc4ccccc43)cnc2c1-c1cccc(Cl)c1 [Example 352] | < 0.1 | < 0.1 | < 0.1 | 4.38 | 6.31
Cc1nn2c(C3CC3)c(C(=O)N[C@H]3CCc4ccccc43)cnc2c1-c1cccc(F)c1 [Example 353] | < 0.1 | < 1 | < 0.1 | 3.95 | 7.94
Cc1nn2c(C3CC3)c(C(=O)N[C@H]3CCc4ccccc43)cnc2c1-c1ccccc1F [Example 357] | < 0.1 | < 0.1 | < 0.1 | 3.67 | 6.31
COc1cccc(-c2c(C)nn3c(C(C)C)c(C(=O)N[C@H]4CCOc5ccccc54)cnc23)c1 [Example 395] | < 0.1 | < 0.1 | < 0.1 | 4.24 | 7.94
Cc1nn2c(C(C)C)c(C(=O)N[C@H]3CCOc4ccccc43)cnc2c1-c1cccc(F)c1 [Example 396] | < 0.1 | < 0.1 | < 0.1 | 4.45 | 15.8
Cc1nn2c(C(C)C)c(C(=O)N[C@H]3CCOc4ccccc43)cnc2c1-c1cncc(Cl)c1 [Example 402] | < 0.1 | < 0.1 | < 0.1 | 3.91 | 20
Cc1nn2c(C3CC3)c(C(=O)N[C@H]3CCc4ccccc43)cnc2c1-c1c(F)cccc1F [Example 405] | < 0.1 | < 0.1 | < 0.1 | 3.66 | 3.16
Cc1nn2c(C3CC3)c(C(=O)N[C@H]3CCc4ccccc43)cnc2c1-c1cc(F)ccc1F [Example 422] | < 0.1 | < 0.1 | < 0.1 | 3.84 | 3.98
Cc1nn2c(C3CC3)c(C(=O)N[C@H]3CCc4ccccc43)cnc2c1-c1cccc(F)c1F [Example 424] | < 0.1 | < 0.1 | < 0.1 | 3.84 | 2.51
Cc1nn2c(C3CC3)c(C(=O)N[C@H]3CCc4ccccc43)cnc2c1-c1c(F)ccc(F)c1F [Example 437] | < 0.1 | < 0.1 | < 0.1 | 3.83 | 1.58
Cc1nn2c(C3CC3)c(C(=O)N[C@H]3CCc4ccccc43)cnc2c1-c1c(F)cc(F)cc1F [Example 438] | < 0.1 | < 0.1 | < 0.1 | 3.87 | 1.26
